The record followed here is US8680159B2, “Bradykinin 1 receptor modulating compounds” (Gruenenthal GmbH, priority 2010, dated 2014).

Molecules are shown by their SMILES. Where two headings read alike, the source gives them in different places.

The target of assay [1] is T1, B1R receptor of the rat (CHO K1 cells stably transfected with the B1R gene of the rat) (Rattus norvegicus, UniProt P97583).
T1 construct: expressed in transfected cells; host or cells: CHO K1 cells (Chinese hamster ovary), stably transfected
T1 sequence (P97583 1-337): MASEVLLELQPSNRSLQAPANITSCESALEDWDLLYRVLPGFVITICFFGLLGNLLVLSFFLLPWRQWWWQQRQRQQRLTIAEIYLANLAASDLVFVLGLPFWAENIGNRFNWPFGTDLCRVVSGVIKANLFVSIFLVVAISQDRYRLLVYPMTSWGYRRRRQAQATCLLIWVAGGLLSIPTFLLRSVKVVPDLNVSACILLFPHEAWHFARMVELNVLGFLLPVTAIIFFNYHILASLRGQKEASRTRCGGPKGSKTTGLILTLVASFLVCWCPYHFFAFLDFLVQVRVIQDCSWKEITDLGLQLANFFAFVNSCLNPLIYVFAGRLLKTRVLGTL
In words: Functional study on the bradykinin receptor 1 (B1R), Ca2+ fluorescence (Fluo-4) FLIPR/Novostar assay, rB1R cells. In kind it is cell-based. The conditions noted are these: CHO-K1, 10 μM. The method, boiled down:
(§1)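 Ca2+ influx (Fluo-4, peak fluorescence, λex 488/λem 540 nm) was measured in CHO K1 lines expressing rat or human B1R. After a 10 μM test-compound pre-addition scoring % activation, cells received EC80 agonist: Des-Arg9-bradykinin for rat, Lys-Des-Arg9-bradykinin for human. Antagonism was expressed as % of maximum inhibition, with IC50 from varied concentrations.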

The target of assay [2] is T2, human B1R receptor (CHO K1 cells stably transfected with the human B1R gene) (Homo sapiens, UniProt P46663).
T2 construct: expressed in transfected cells; host or cells: CHO K1 cells (Chinese hamster ovary), stably transfected
T2 sequence (P46663 1-353): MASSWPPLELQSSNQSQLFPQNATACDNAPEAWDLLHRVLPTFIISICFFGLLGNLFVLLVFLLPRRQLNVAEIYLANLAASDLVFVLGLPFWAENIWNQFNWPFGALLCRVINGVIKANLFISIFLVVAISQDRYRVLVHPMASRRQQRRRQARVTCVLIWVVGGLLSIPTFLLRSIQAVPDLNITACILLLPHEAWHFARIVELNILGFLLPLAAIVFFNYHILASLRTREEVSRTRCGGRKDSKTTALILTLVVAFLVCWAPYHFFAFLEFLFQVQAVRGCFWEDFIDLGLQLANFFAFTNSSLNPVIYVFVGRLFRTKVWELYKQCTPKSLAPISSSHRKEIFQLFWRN
In words: Functional study on the bradykinin receptor 1 (B1R), Ca2+ fluorescence (Fluo-4) FLIPR/Novostar assay, hB1R cells. It counts as cell-based. The essentials:
as §1

The mark [3] stands for this setting: read-out: % Inhibition (r-B1R) at 10 μM.
[4] abbreviates: CHO-K1, read-out: % Inhibition (h-B1R) at 10 μM.
Setting [5] is: read-out: % inhibition (rat B1R) at 10 μM.
[6] abbreviates: CHO-K1, read-out: % inhibition (human B1R) at 10 μM.

The inhibition is the change of the read-out against control, counted positive when it falls. For the compound `CN(C(=O)c1ccc2c(c1)C(NC(=O)c1cnccc1C(F)(F)F)CCO2)C1CCN(c2ccncc2)CC1` (stereo not shown) [CC_H-42, N-[6-[Methyl-(1-pyridin-4-yl-piperidin-4-yl)-carbamoyl]-3,4-dihydro-2H-chromen-4-yl]-4-(trifluoromethyl)-pyridine-3-carboxylic acid amide], the inhibition at 10 µM in assay [1] (setting [3]) was 104%; in assay [2] (setting [4]), 99%.

On to `Cc1cccc(C)c1C(=O)NC1CCCc2ccc(C(=O)N(C)C3CCN(c4ccncc4)CC3)cc21` (stereo not shown) [CC_H-09, 8-[(2,6-Dimethyl-benzoyl)amino]-N-methyl-N-(1-pyridin-4-yl-piperidin-4-yl)-5,6,7,8-tetrahydro-naphthalene-2-carboxylic acid amide], for which the inhibition at 10 µM stood at 103% in assay [1] (setting [3]) and 99% in assay [2] (setting [4]).

With `CC(C)CS(=O)(=O)N[C@@H]1CCc2ccc(C(=O)N(C)C3CCN(c4ccncc4)CC3)cc21` [Example H-68, (3R)-N-Methyl-3-[(2-methyl-propylsulfonyl)amino]-N-(1-pyridin-4-yl-piperidin-4-yl)-2,3-dihydro-1H-indene-5-carboxylic acid amide], the inhibition at 10 µM in assay [1] (setting [5]) turned out to be 104%; in assay [2] (setting [6]), 100%.

For `Cc1cc(N2CCC(N(C)C(=O)c3ccc4c(c3)[C@H](NC(=O)c3cc(C)on3)CC4)CC2)nc(C)n1` [Example H-96, N-[(1R)-6-[[1-(2,6-Dimethyl-pyrimidin-4-yl)-piperidin-4-yl]-methyl-carbamoyl]-2,3-dihydro-1H-inden-1-yl]-5-methyl-isoxazole-3-carboxylic acid amide], the inhibition at 10 µM was found to be 104% in assay [1] (setting [5]) and 100% in assay [2] (setting [6]).

As to `CN(C(=O)c1ccc2c(c1)C(NC(=O)c1sccc1Cl)CC2(C)C)C1CCN(c2ccncc2)CC1` (stereo not shown) [CC_H-20, 3-Chloro-N-[3,3-dimethyl-6-[methyl-(1-pyridin-4-yl-piperidin-4-yl)-carbamoyl]-1,2-dihydro-inden-1-yl]-thiophene-2-carboxylic acid amide], the values for the inhibition at 10 µM in assay [1] (setting [3]) and in assay [2] (setting [4]) were 104% and 99%, respectively.

Regarding `Cc1cc(N2CCC(N(C)C(=O)c3cc4c(cc3F)[C@H](NC(=O)c3ccccc3Cl)CC4)CC2)ncn1` [Example H-152, (1R)-1-[(2-Chloro-benzoyl)amino]-6-fluoro-N-methyl-N-[1-(6-methyl-pyrimidin-4-yl)-piperidin-4-yl]-2,3-dihydro-1H-indene-5-carboxylic acid amide], the inhibition at 10 µM in assay [1] (setting [5]) stood at 93%; in assay [2] (setting [6]), 82%.

With `CN(C(=O)c1ccc2c(c1)CCC2NC(=O)c1ccccc1Cl)C1CCN(c2ccncc2)CC1` (stereo not shown) [CC_H-68, 1-[(2-Chloro-benzoyl)amino]-N-methyl-N-(1-pyridin-4-yl-piperidin-4-yl)-2,3-dihydro-1H-indene-5-carboxylic acid amide], the figures for the inhibition at 10 µM in assay [1] (setting [3]) and in assay [2] (setting [4]) were 87% and 96%, respectively.

With `CN(C(=O)c1ccc2c(c1)C(NC(=O)c1c(Cl)cccc1C(F)(F)F)CC2)C1CCN(c2ccc3cnccc3c2)CC1` (stereo not shown) [CC_H-62, 3-[[2-Chloro-6-(trifluoromethyl)-benzoyl]amino]-N-(1-isoquinolin-6-yl-piperidin-4-yl)-N-methyl-2,3-dihydro-1H-indene-5-carboxylic acid amide], the values for the inhibition at 10 µM in assay [1] (setting [3]) and in assay [2] (setting [4]) were 101% and 84%, respectively.

With `Cc1cc(N2CCC(CN(C)C(=O)c3ccc4c(c3)[C@H](NC(=O)c3ccccc3Cl)CC4)CC2)ccn1` [Example H-49, (3R)-3-[(2-Chloro-benzoyl)amino]-N-methyl-N-[[1-(2-methyl-pyridin-4-yl)-piperidin-4-yl]-methyl]-2,3-dihydro-1H-indene-5-carboxylic acid amide], the values for the inhibition at 10 µM in assay [1] (setting [5]) and in assay [2] (setting [6]) were 101% and 85%, respectively.

On to `Cc1cc(N2CCC(N(C)C(=O)c3ccc4c(c3)[C@H](NC(=O)c3ccccc3Cl)CC4)CC2)ccn1` [Example H-55, (3R)-3-[(2-Chloro-benzoyl)amino]-N-methyl-N-[1-(2-methyl-pyridin-4-yl)-piperidin-4-yl]-2,3-dihydro-1H-indene-5-carboxylic acid amide], for which the inhibition at 10 µM worked out at 104% in assay [1] (setting [5]) and 99% in assay [2] (setting [6]).

Turning to `CN(C(=O)c1ccc2c(c1)CCC2NC(=O)C1CCCCC1)C1CCN(c2ccncc2)CC1` (stereo not shown) [CC_H-58, 1-(Cyclohexanecarbonylamino)-N-methyl-N-(1-pyridin-4-yl-piperidin-4-yl)-2,3-dihydro-1H-indene-5-carboxylic acid amide], the inhibition at 10 µM in assay [1] (setting [3]) turned out to be 77%; in assay [2] (setting [4]), 96%.

Regarding `CC(C)CN(C(=O)c1ccccc1Cl)[C@@H]1CCc2ccc(C(=O)N(C)C3CCN(c4ccncc4)CC3)cc21` [Example H-65, (3R)-3-[(2-Chloro-benzoyl)-(2-methyl-propyl)-amino]-N-methyl-N-(1-pyridin-4-yl-piperidin-4-yl)-2,3-dihydro-1H-indene-5-carboxylic acid amide], the inhibition at 10 µM in assay [1] (setting [5]) came to 107%; in assay [2] (setting [6]), 100%.

In the case of `CN(C(=O)c1ccc2c(c1)[C@H](NC(=O)c1cccc(F)c1Cl)CC2)C1CCN(c2ccncn2)CC1` [Example H-164, (3R)-3-[(2-Chloro-3-fluoro-benzoyl)amino]-N-methyl-N-(1-pyrimidin-4-yl-piperidin-4-yl)-2,3-dihydro-1H-indene-5-carboxylic acid amide], the inhibition at 10 µM in assay [1] (setting [5]) was found to be 105%; in assay [2] (setting [6]), 100%.

With `Cc1cc(N2CCC(N(C)C(=O)c3ccc4c(c3)[C@H](NC(=O)CCC3CCCC3)CC4)CC2)ccn1` [Example H-93, (3R)-3-(3-Cyclopentyl-propanoylamino)-N-methyl-N-[1-(2-methyl-pyridin-4-yl)-piperidin-4-yl]-2,3-dihydro-1H-indene-5-carboxylic acid amide], the inhibition at 10 µM stood at 103% in assay [1] (setting [5]) and 100% in assay [2] (setting [6]).

Turning to `O=C(NC1CCN(c2ccncc2)CC1)c1ccc2c(c1)[C@H](NC(=O)c1ccccc1Cl)CC2` [Example H-07, (3R)-3-[(2-Chloro-benzoyl)amino]-N-(1-pyridin-4-yl-piperidin-4-yl)-2,3-dihydro-1H-indene-5-carboxylic acid amide], the inhibition at 10 µM amounted to 96% in assay [1] (setting [5]) and 43% in assay [2] (setting [6]).

For `CC(C)CC(=O)N(C(C)C)[C@@H]1CCc2ccc(C(=O)N(C)C3CCN(c4ccnc(N(C)C)n4)CC3)cc21` [Example H-120, (3R)-N-[1-(2-Dimethylamino-pyrimidin-4-yl)-pipendin-4-yl]-3-[isopropyl-(3-methyl-butanoyl)-amino]-N-methyl-2,3-dihydro-1H-indene-5-carboxylic acid amide], the inhibition at 10 µM in assay [1] (setting [5]) came out at 78%; in assay [2] (setting [6]) it was 98%.

In the case of `CN(C(=O)c1ccc2c(c1)CCC2NC(=O)c1cc(F)ccc1Cl)C1CCN(c2ccncc2)CC1` (stereo not shown) [CC_H-64, 1-[(2-Chloro-5-fluoro-benzoyl)amino]-N-methyl-N-(1-pyridin-4-yl-piperidin-4-yl)-2,3-dihydro-1H-indene-5-carboxylic acid amide], the inhibition at 10 µM in assay [1] (setting [3]) is 87%; in assay [2] (setting [4]), 100%.

Take `CN(C(=O)c1ccc2c(c1)[C@H](NC(=O)c1ccccc1Cl)CC2)C1CCN(c2cc[n+]([O-])cc2)CC1` [Example H-98, (3R)-3-[(2-Chloro-benzoyl)amino]-N-methyl-N-[1-(1-oxido-pyridin-1-ium-4-yl)-piperidin-4-yl]-2,3-dihydro-1H-indene-5-carboxylic acid amide]: the inhibition at 10 µM was determined as 105% in assay [1] (setting [5]) and 100% in assay [2] (setting [6]).

With `CN(C(=O)c1ccc2c(c1)[C@H](NC(=O)c1ccccc1Cl)CC2)C1CCC(Oc2ccncc2)CC1` (stereo partly drawn) [Example H-114, (3R)-3-[(2-Chloro-benzoyl)amino]-N-methyl-N-(4-pyridin-4-yloxy-cyclohexyl)-2,3-dihydro-1H-indene-5-carboxylic acid amide], the inhibition at 10 µM in assay [1] (setting [5]) was 96%; in assay [2] (setting [6]) it was 38%.

As for `CN1CCC(N2CCC(NC(=O)c3ccc4c(c3)CC[C@H]4N3Cc4cccc(Cl)c4C3=O)CC2)CC1` [Example H-42, (1R)-1-(4-Chloro-3-oxo-1,2-dihydro-isoindol-2-yl)-N-[1-(1-methyl-piperidin-4-yl)-piperidin-4-yl]-2,3-dihydro-1H-indene-5-carboxylic acid amide], the inhibition at 10 µM was determined as 18% in assay [1] (setting [5]) and 65% in assay [2] (setting [6]).
